# Assay results: paper PMC11189555, “Aryl amino acetamides prevent Plasmodium falciparum ring development via targeting the lipid-transfer protein PfSTART1” (Nature Communications, 2024)
# Where “and” joins values, the source holds several entries; their conditions need not be identical. Equal entries are not always repeated. Where two headings read alike, the source gives them in different places.
# How the values were obtained:
# in vitro = settings: human
# [1] = test system: 3D7 P. falciparum parasites; test: Growth inhibition assay (72 h, LDH activity); assay type: cell-based, Plasmodium falciparum; settings: for NORMALISED (growth inhibition, LDH absorbance vs DMSO and uRBC): 3D7, 0 mM GlcN; for inhibition / EC50: Plasmodium falciparum; for inhibition: 3D7, 3D7, read-out: NORMALISED (growth inhibition, LDH absorbance)
# How it was run: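 Synchronised ring-stage P. falciparum (0.3-0.6% parasitemia, 2% haematocrit) grown 72 h in serial compound dilutions, sometimes with 0, 0.25 or 2.5 mM glucosamine. Growth read as LDH activity (Malstat/NBT, A650) after freeze-thaw, normalised to DMSO and uninfected RBC. EC50 by nonlinear regression.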
# [2] = target: T1, recombinant PfSTART1(WT) (I149-V394) (Plasmodium falciparum, UniProt Q8I298); test: Isothermal titration calorimetry; assay type: binding; settings: for Differential Power DP_Y / ΔH NDH_Y: PfSTART(WT), ITC replicate data
# T1 construct: START domain alone (I149-V394 from PF3D7_0104200); 8xHis tag (N); TEV protease cleavage site (N); made in house; host or cells: Sf21 insect cells (baculovirus)
# From the text: Codon optimised (Spodoptera frugiperda, Sf) START domain alone (I149-V394 from PF3D7_0104200) was synthesised by Integrated DNA Technologies and cloned into a modified baculovirus transfer vector (pAcGP67-A) with a N-terminal GP67-signal sequence, 8xHis tag, and TEV protease cleavage site. Recombinant baculovirus was generated via the flashBACTM Baculovirus Expression System using Sf21 cells (Life Technologies), amplified to reach a third passage viral stock, and 1.5% used to infect Sf21 for protein expression. After incubation for three days at 28 °C, media containing secreted protein was harvested by centrifugation and supplemented with 50 mM Tris pH 7.5, 20 mM MgCl2, 100 mM NaCl, and 10-20 mM imidazole. The supplemented protein sample was purified by nickel affinity chromatography (HisTrap Excel 5 mL, Cytiva), and eluted with 20 mM Tris pH 7.5, 500 mM NaCl, 300-500 mM imidazole. Eluted fractions were further purified using size-exclusion chromatography (Superdex S75 16/600 or Superdex 10/300, Cytiva) with the column pre-equilibrated with 20 mM HEPES pH 7.5, 150 mM NaCl, and peak-containing fractions concentrated and stored at -80 °C until required. If required, prior to ITC, a second size-exclusion chromatography step was performed to remove soluble aggregates.
# ITC experiments were performed on a MicroCal PEAQ-ITC calorimeter at 25 °C, with a stirring speed of 750 rpm and a reference power of 5 μcal/sec. 500 μM M-833 series inhibitor solutions were diluted to 10 μM in 50 mM NaPO4^-3 (pH 7.4), 150 mM NaCl with a final DMSO concentration of 2% (v/v) (cell sample). PfSTART1 protein was dialysed extensively against 50 mM NaPO4^-3 (pH 7.4), 150 mM NaCl, before diluting to 90 μM in the same buffer with 2% (v/v) DMSO (syringe sample). The first injection was 0.4 μL over a 0.8 s duration, and the remaining 19 injections were 2 μL of 4 s duration, with 150 s injection spacing. Data were collected and analysed using the PEAQ-ITC software (MicroCal) and fit by a single site binding model. A fitted offset (constant control heat) was also applied to the integrated heat.
# T1 sequence (Q8I298 entry or part of it): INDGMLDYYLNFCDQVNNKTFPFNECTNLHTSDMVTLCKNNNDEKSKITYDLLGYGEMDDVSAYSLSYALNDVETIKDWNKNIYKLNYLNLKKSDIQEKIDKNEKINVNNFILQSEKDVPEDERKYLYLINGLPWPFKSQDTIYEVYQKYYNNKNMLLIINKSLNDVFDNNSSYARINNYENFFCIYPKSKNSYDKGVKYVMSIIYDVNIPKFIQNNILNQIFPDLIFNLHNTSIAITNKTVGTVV
smiles,measurement,setting,value
CC(C)(Nc1ccc(Cl)c(S(=O)(=O)N2CCOCC2)c1)C(=O)Nc1ccc(F)c(Cl)c1 [W-991],CC50,in vitro,29000 nM
same,"NORMALISED (growth inhibition, LDH absorbance vs DMSO and uRBC)",[1]; W991 at 0.137174 nM,9.0099 and 4.6722
same,"NORMALISED (growth inhibition, LDH absorbance vs DMSO and uRBC)",[1]; W991 at 0.411523 nM,30.495 and 19.7030
same,"NORMALISED (growth inhibition, LDH absorbance vs DMSO and uRBC)",[1]; W991 at 1.23457 nM,67.3267 and 60.8717
same,"NORMALISED (growth inhibition, LDH absorbance vs DMSO and uRBC)",[1]; W991 at 3.7037 nM,88.9109 and 93.8187
same,"NORMALISED (growth inhibition, LDH absorbance vs DMSO and uRBC)",[1]; W991 at 11.1111 nM,90.3465 and 96.7162
same,"NORMALISED (growth inhibition, LDH absorbance vs DMSO and uRBC)",[1]; W991 at 33.3333 nM,89.8515 and 96.9697
same,"NORMALISED (growth inhibition, LDH absorbance vs DMSO and uRBC)",[1]; W991 at 100 nM,92.3267 and 97.2232
same,"NORMALISED (growth inhibition, LDH absorbance)","[1]; 3D7, 0.25 mM GlcN, dilution point 1 of 10, starting concentration 100 nM",97.1868
same,"NORMALISED (growth inhibition, LDH absorbance)","[1]; 3D7, 0.25 mM GlcN, dilution point 2 of 10 from starting concentration 100 nM",96.6100
same,"NORMALISED (growth inhibition, LDH absorbance)","[1]; 3D7, 0.25 mM GlcN, dilution point 3 of 10 from starting concentration 100 nM",96.4481
same,"NORMALISED (growth inhibition, LDH absorbance)","[1]; 3D7, 0.25 mM GlcN, dilution point 4 of 10 from starting concentration 100 nM",92.3801
same,"NORMALISED (growth inhibition, LDH absorbance)","[1]; 3D7, 0.25 mM GlcN, dilution point 5 of 10 from starting concentration 100 nM",74.4235 and 44.8087
same,"NORMALISED (growth inhibition, LDH absorbance)","[1]; 3D7, 2.5 mM GlcN, dilution point 1 of 10, starting concentration 100 nM",96.9212
same,"NORMALISED (growth inhibition, LDH absorbance)","[1]; 3D7, 2.5 mM GlcN, dilution point 2 of 10 from starting concentration 100 nM",96.2021
same,"NORMALISED (growth inhibition, LDH absorbance)","[1]; 3D7, 2.5 mM GlcN, dilution point 3 of 10 from starting concentration 100 nM",95.7667
same,"NORMALISED (growth inhibition, LDH absorbance)","[1]; 3D7, 2.5 mM GlcN, dilution point 4 of 10 from starting concentration 100 nM",92.5258
same,"NORMALISED (growth inhibition, LDH absorbance)","[1]; 3D7, 2.5 mM GlcN, dilution point 5 of 10 from starting concentration 100 nM",58.1932
same,"NORMALISED (growth inhibition, LDH absorbance)","[1]; 3D7, 2.5 mM GlcN, dilution point 6 of 10 from starting concentration 100 nM",27.2129
same,"NORMALISED (growth inhibition, LDH absorbance)","[1]; 3D7, 2.5 mM GlcN, dilution point 8 of 10 from starting concentration 100 nM",5.32 and 8.1730
same,(av-uRBC) / (DMSO-uRBC) x100,"[1]; 3D7, conc. 0.0762079 nM, Biological replicate 1 (2021-10-25)",91.3585
same,(av-uRBC) / (DMSO-uRBC) x100,"[1]; 3D7, conc. 0.0762079 nM, Biological replicate 2 (2021-11-03)",90.9909
same,(av-uRBC) / (DMSO-uRBC) x100,"[1]; 3D7, conc. 0.0762079 nM, Biological replicate 3 (2021-11-11)",91.0985
same,(av-uRBC) / (DMSO-uRBC) x100,"[1]; 3D7, conc. 0.228624 nM, Biological replicate 1 (2021-10-25)",79.3619
same,(av-uRBC) / (DMSO-uRBC) x100,"[1]; 3D7, conc. 0.228624 nM, Biological replicate 2 (2021-11-03)",81.2617
same,(av-uRBC) / (DMSO-uRBC) x100,"[1]; 3D7, conc. 0.228624 nM, Biological replicate 3 (2021-11-11)",73.154
same,(av-uRBC) / (DMSO-uRBC) x100,"[1]; 3D7, conc. 0.685871 nM, Biological replicate 1 (2021-10-25)",42.85
same,(av-uRBC) / (DMSO-uRBC) x100,"[1]; 3D7, conc. 0.685871 nM, Biological replicate 2 (2021-11-03)",72.8867
same,(av-uRBC) / (DMSO-uRBC) x100,"[1]; 3D7, conc. 0.685871 nM, Biological replicate 3 (2021-11-11)",42.2112
same,(av-uRBC) / (DMSO-uRBC) x100,"[1]; 3D7, conc. 2.05761 nM, Biological replicate 1 (2021-10-25)",12.3757
same,(av-uRBC) / (DMSO-uRBC) x100,"[1]; 3D7, conc. 2.05761 nM, Biological replicate 2 (2021-11-03)",18.386
same,(av-uRBC) / (DMSO-uRBC) x100,"[1]; 3D7, conc. 2.05761 nM, Biological replicate 3 (2021-11-11)",9.397
same,(av-uRBC) / (DMSO-uRBC) x100,"[1]; 3D7, conc. 6.17284 nM, Biological replicate 1 (2021-10-25)",9.357
same,(av-uRBC) / (DMSO-uRBC) x100,"[1]; 3D7, conc. 6.17284 nM, Biological replicate 2 (2021-11-03)",11.686
same,(av-uRBC) / (DMSO-uRBC) x100,"[1]; 3D7, conc. 6.17284 nM, Biological replicate 3 (2021-11-11)",6.494
same,(av-uRBC) / (DMSO-uRBC) x100,"[1]; 3D7, conc. 18.5185 nM, Biological replicate 1 (2021-10-25)",9.8
same,(av-uRBC) / (DMSO-uRBC) x100,"[1]; 3D7, conc. 18.5185 nM, Biological replicate 2 (2021-11-03)",10.8954
same,(av-uRBC) / (DMSO-uRBC) x100,"[1]; 3D7, conc. 18.5185 nM, Biological replicate 3 (2021-11-11)",6.2108
same,(av-uRBC) / (DMSO-uRBC) x100,"[1]; 3D7, conc. 55.5556 nM, Biological replicate 1 (2021-10-25)",9.035
same,(av-uRBC) / (DMSO-uRBC) x100,"[1]; 3D7, conc. 55.5556 nM, Biological replicate 2 (2021-11-03)",11.005
same,(av-uRBC) / (DMSO-uRBC) x100,"[1]; 3D7, conc. 55.5556 nM, Biological replicate 3 (2021-11-11)",5.108
same,(av-uRBC) / (DMSO-uRBC) x100,"[1]; 3D7, conc. 166.667 nM, Biological replicate 1 (2021-10-25)",9.2782
same,(av-uRBC) / (DMSO-uRBC) x100,"[1]; 3D7, conc. 166.667 nM, Biological replicate 2 (2021-11-03)",9.854
same,(av-uRBC) / (DMSO-uRBC) x100,"[1]; 3D7, conc. 166.667 nM, Biological replicate 3 (2021-11-11)",4.764
same,(av-uRBC) / (DMSO-uRBC) x100,"[1]; 3D7, conc. 500 nM, Biological replicate 1 (2021-10-25)",10.7733
same,(av-uRBC) / (DMSO-uRBC) x100,"[1]; 3D7, conc. 500 nM, Biological replicate 2 (2021-11-03)",10.7389
same,(av-uRBC) / (DMSO-uRBC) x100,"[1]; 3D7, conc. 500 nM, Biological replicate 3 (2021-11-11)",3.985
same,improvement in parasite activity on replacing the aryl oxy of compound 3 with an amino group,[1]; EC50 based,20 fold
same,inhibition,"[1]; 0.25 mM GlcN, dilution point 1 of 10, starting concentration 100 nM",94.1%
same,inhibition,"[1]; 0.25 mM GlcN, dilution point 2 of 10 from starting concentration 100 nM",94.3%
same,inhibition,"[1]; 0.25 mM GlcN, dilution point 3 of 10 from starting concentration 100 nM",95.3%
same,inhibition,"[1]; 0.25 mM GlcN, dilution point 4 of 10 from starting concentration 100 nM",91.5%
same,inhibition,"[1]; 2.5 mM GlcN, dilution point 1 of 10, starting concentration 100 nM",89.4%
same,inhibition,"[1]; 2.5 mM GlcN, dilution point 2 of 10 from starting concentration 100 nM",91.3%
same,inhibition,"[1]; 2.5 mM GlcN, dilution point 3 of 10 from starting concentration 100 nM",88.4%
same,inhibition,"[1]; 2.5 mM GlcN, dilution point 4 of 10 from starting concentration 100 nM",86.4%
same,inhibition,"[1]; 2.5 mM GlcN, dilution point 5 of 10 from starting concentration 100 nM",65.7%
same,inhibition,"[1]; 2.5 mM GlcN, dilution point 6 of 10 from starting concentration 100 nM",40.2%
same,EC50,"[1]; 3D7, 72 h, Supplementary Table 1, 3D7, 72 h, read-out: EC50",0.72 nM
same,EC50,"[1]; 3D7, Fig 4C, 3D7, 0 mM GlcN, n = 3, read-out: EC50 W-991 (95% confidence interval)",0.942 nM
same,EC50,"[1]; 3D7, Fig 4C, 3D7, 0.25 mM GlcN, n = 3, read-out: EC50 W-991 (95% confidence interval)",0.908 nM
same,EC50,"[1]; 3D7, Fig 4C, 3D7, 2.5 mM GlcN, n = 3, read-out: EC50 W-991 (95% confidence interval)",0.787 nM
same,EC50,"[1]; 3D7, text on structure activity relationship (Fig 4A), read-out: EC50, antiparasitic activity",7 nM
same,effect of GlcN addition on EC50,"[1]; control 3D7, Fig 4C",did not change the EC50
same,Kd,"[2]; ITC, 25 °C, 90 µM PfSTART1 titrated into 10 µM compound, n = 2, ± SD",10 ± 7 nM
same,ΔH,"[2]; ITC, 25 °C, n = 2, ± SD",-12.8 ± 0.1 kcal/mol
same,−TΔS,"[2]; ITC, 25 °C, n = 2, ± SD",1.8 ± 0.6 kcal/mol
same,Differential Power DP_Y,[2]; DP_X 0.083333,-0.000146
same,Differential Power DP_Y,[2]; DP_X 0.1,9.8e-5
same,ΔH NDH_Y,[2]; NDH_X 0.104703,-13.8427
same,ΔH NDH_Y,[2]; NDH_X 0.192876,-12.6755
